The nature of data set [1]: Stability of crystals: strong light irradiation test (4,500±500 Lx). In kind it is physicochemical. The text has this: (§1) The conditions and methods for detecting the relevant substances involved in the present invention are high performance liquid chromatography determination.
The distance was adjusted so that the light intensity was 4,500±500 Lx. The samples were taken and tested on day 5 and day 10, respectively, and the results were compared with that of day 0.

Data set [2] is described as follows: Stability of crystals: high humidity test (RH 75±5%). In kind it is physicochemical. The conditions noted are these: around 25° C.
Excerpt: as §1
The samples were taken and tested on day 5 and day 10, respectively, and the results were compared with that of day 0.

Another data set has as its target T1, BuchE (Rattus norvegicus, UniProt Q9JKC1).
T1 construct: The effect of Huperzine B on BuchE activity in the serum of rats; from tissue; host or cells: SD rat serum (ex vivo after gavage)
Kind of data set: Cholinesterase inhibitory activity in vivo: BuchE activity in rat serum after gavage. Details: species or system SD rats. As for the experimental part:
Experimental animals: SD rats, clean grade, male, body weight 180-200 g, provided by Shanghai SLAC Laboratory Animal Co., Ltd, free to drink and ingest during the experimental period, indoor temperature 22-24° C., humidity 45-70%.
Main reagents: S-Butyrylthiocholine iodide, S-Acetylthiocholine iodide, Kaumas Brilliant Blue, sodium hydroxide, ethyl carbamate (urethane), phosphoric acid, sodium chloride, sodium bicarbonate, potassium dihydrogen phosphate, ethanol, sodium dodecyl sulfate, 5,5′-Dithiobis-(2-nitrobenzoic acid) (DTNB), hydrochloric acid; the above chemical reagents were purchased from Sinopharm Chemical Reagent Co., Ltd. Physiological saline, product of Shanghai Bangjing Industry Co., Ltd; bovine serum albumin, purchased from Meilun Biologicals.
The equation for calculating the activity and the activity rate of “butyrylcholinesterase” was the same as that for “acetylcholinesterase”.
Statistical analysis: SPSS 18 statistical software and EXCEL were applied. Measurement data were expressed as “mean±standard deviation (x±s)”, t-test was used for comparison between two groups, and LSD method was used for pairwise comparison between groups when there was homogeneity of variance, and Dunnett's method was used for analysis when there was heterogeneity of variance. P<0.05 indicates significant differences.

Data set [3] can be described thus: Stability of crystals: high temperature test (60° C.). In kind it is physicochemical.
Excerpt: as §1
The samples were taken and tested on day 5 and day 10, respectively, and the results were compared with those on day 0.The results are shown in Table 5.

Data set [4] in a line: Hygroscopicity test (Chinese Pharmacopoeia 2020). In kind it is physicochemical. The procedure: The test was carried out with reference to the requirements of hygroscopicity test in the General Technical Requirements of Part IV of the Chinese Pharmacopoeia 2020 Edition.
Methods: A dry stoppered glass weighing flask (outer diameter 50 mm, height 15 mm) was placed in a suitable 25° C.±1° C. constant temperature desiccator (with ammonium chloride or ammonium sulfate saturated solution placed in the lower part) or an artificial climate chamber (with a set temperature of 25° C.±1° C. and a relative humidity of 80%±2%) prior to the test, and the weight (m1) was weighed precisely.
The thickness of the test sample was generally 1 mm, and the weight (m2) was weighed precisely. The weighing flask was left open, and was placed in the above constant temperature and humidity conditions together with the cap of the flask for 24 hours.
The weighing flask was closed with the cap and weighed precisely (m3).

[5] abbreviates: 25° C.±1° C., relative humidity 80%±2%, 24 hours.

Broadly, the inhibition is how much of the control response was suppressed.

T1 sequence (Q9JKC1 24-597): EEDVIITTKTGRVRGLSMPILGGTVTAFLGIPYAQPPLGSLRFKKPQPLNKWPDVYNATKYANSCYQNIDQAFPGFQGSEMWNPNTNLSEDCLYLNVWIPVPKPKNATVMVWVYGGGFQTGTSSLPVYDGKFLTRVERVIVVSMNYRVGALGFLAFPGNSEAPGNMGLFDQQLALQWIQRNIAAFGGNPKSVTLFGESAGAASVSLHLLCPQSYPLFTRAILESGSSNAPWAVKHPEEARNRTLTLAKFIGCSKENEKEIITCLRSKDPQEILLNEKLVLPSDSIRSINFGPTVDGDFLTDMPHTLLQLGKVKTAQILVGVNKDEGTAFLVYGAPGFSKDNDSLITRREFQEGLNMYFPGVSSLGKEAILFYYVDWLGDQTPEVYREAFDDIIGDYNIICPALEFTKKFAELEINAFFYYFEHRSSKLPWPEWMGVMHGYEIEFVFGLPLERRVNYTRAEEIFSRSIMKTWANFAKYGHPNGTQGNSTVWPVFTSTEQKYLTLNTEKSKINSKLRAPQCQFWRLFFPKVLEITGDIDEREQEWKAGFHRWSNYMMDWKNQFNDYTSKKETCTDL

With `CC1=CC2Cc3[nH]c(=O)ccc3C3(C1)NCCCC23` [Crystal form A, (4aR, 5R, 10bR)-1,2,3,4,4a,4,6,10b octahydro-12-methyl-5,10b-propeno-1,7-phenanthrolin-8 (7H)-one], the Appearance result in data set [1] (day 0), in data set [1] (day 5), in data set [1] (day 10), in data set [2] (day 0), in data set [2] (day 5) and in data set [2] (day 10) was “Off-white powder” throughout. Also, the Appearance result in data set [3] (day 0), in data set [3] (day 5) and in data set [3] (day 10) was “Off-white” throughout. Further, the Content in data set [1] (day 0) was 100.1%; in data set [1] (day 5), 99.8%; in data set [1] (day 10) it was 98.9%; in data set [2] (day 0), 100.1%; in data set [2] (day 5) it was 100.2%; in data set [2] (day 10), 99.9%. In addition, the Content in data set [3] (day 0) came out at 100.1%; in data set [3] (day 5), 100.2%; in data set [3] (day 10) it was 99.7%. The relevant substances is recorded as 0.12 in data set [1] (day 0); 0.22 in data set [1] (day 5); 0.28 in data set [1] (day 10); 0.12 in data set [3] (day 0); 0.19 in data set [3] (day 5); 0.21 in data set [3] (day 10). Further, the Moisture in data set [2] (day 0) amounted to 6.93%; in data set [2] (day 5), 6.95%; in data set [2] (day 10), 6.98%. Further, the “effect on BuchE activity in the rat serum (in words)” value at BuchE (rat serum) is listed as “certain inhibitory effect”. For the same compound, in data set [4] (setting [5]), the “Conclusion: (hygroscopicity)” value is recorded as “No or almost no”. Also, the “Percentage of weight gain (%)” value in data set [4] (setting [5]) was 0.05%. Also, the “hygroscopicity (in words)” value in data set [4] (compared with Huperzine B crystal form B) is “low hygroscopicity”.
Take `CC1=CC2Cc3[nH]c(=O)ccc3C3(C1)NCCCC23` [hupB, (4aR, 5R, 10bR)-1,2,3,4,4a,4,6,10b octahydro-12-methyl-5,10b-propeno-1,7-phenanthrolin-8 (7H)-one]: the inhibition at 0.12 mg/kg on BuchE (po, rat serum BuchE, 0.12 mg/kg by gavage, x±s, read-out: Inhibition rate (%)) amounted to 1 ± 46.5%. Besides, the inhibition at 0.24 mg/kg on BuchE (po, rat serum BuchE, 0.24 mg/kg by gavage, x±s, read-out: Inhibition rate (%)) came out at 19.9 ± 28.1%. At BuchE (po, rat serum BuchE, 0.48 mg/kg by gavage, x±s, read-out: Inhibition rate (%)), the inhibition at 0.48 mg/kg stood at 29.2 ± 13.7%. Also, the “Serum BuchE (nmol/min/mg protein)” value on BuchE (rat serum, 0.12 mg/kg by gavage, x±s) came out at 6.83 ± 3.21 nmol/min/mg protein; at BuchE (rat serum, 0.24 mg/kg by gavage, x±s) it was 5.53 ± 1.94 nmol/min/mg protein; on BuchE (rat serum, 0.48 mg/kg by gavage, x±s), 4.88 ± 0.94 nmol/min/mg protein.
Regarding `CC1=CC2Cc3[nH]c(=O)ccc3C3(C1)NCCCC23` [Crystal form B, (4aR, 5R, 10bR)-1,2,3,4,4a,4,6,10b octahydro-12-methyl-5,10b-propeno-1,7-phenanthrolin-8 (7H)-one], the Appearance result in data set [1] (day 0), in data set [1] (day 5), in data set [1] (day 10), in data set [2] (day 0), in data set [2] (day 5) and in data set [2] (day 10) was “Off-white powder” in each case. Moreover, the Appearance result in data set [3] (day 0), in data set [3] (day 5) and in data set [3] (day 10) was “Off-white” in each case. The Content in data set [1] (day 0) is given as 99.8%; in data set [1] (day 5) it was 99.5%; in data set [1] (day 10) it was 98.6%; in data set [2] (day 0), 99.8%; in data set [2] (day 5), 99.7%; in data set [2] (day 10), 99.6%. The Content in data set [3] (day 0) was 99.8%; in data set [3] (day 5) it was 99.5%; in data set [3] (day 10) it was 98.9%. In addition, the relevant substances is 0.18 in data set [1] (day 0); 0.32 in data set [1] (day 5); 0.49 in data set [1] (day 10); 0.18 in data set [3] (day 0); 0.29 in data set [3] (day 5); 0.41 in data set [3] (day 10). Also, the Moisture in data set [2] (day 0) worked out at 6.13%; in data set [2] (day 5), 7.13%; in data set [2] (day 10) it was 7.53%. Besides, in data set [4] (setting [5]), the “Percentage of weight gain (%)” value came out at 2.88%.

These data come from patent publication US20250084082A1, “HUPERZINE B CRYSTAL AND PREPARATION AND APPLICATION THEREOF” (priority 2021, published 2025).
